Data as given in ChEMBL document CHEMBL1126357, “Synthesis of sodium salt of ortho-(difluoromethyl)phenyl--ketoside of N-acetylneuraminic acid : a mechanism-based inhibitor of Clostridium perfringens neuraminidase” (Bioorg Med Chem Lett, 1992).

Test: Ki apparent against Clostridium perfringens neuraminidase was determined
Settings: read-out: Ki app

Compound: CC(=O)NC1C(O)CC(Oc2ccccc2C(F)F)(C(=O)O)OC1[C@H](O)[C@H](O)CO (stereo partly specified)
- Ki: 150 µM
